How the values were obtained:
BaF3 = assay: Antiproliferative activity against mouse BAF3 cells; assay type: functional, cell-based
[1] = target: Activin receptor type-1B (Homo sapiens) (UniProt P36896); assay: Inhibition of ACVR1B at 10 uM; conditions: values are per cent of control
[2] = target: Mitogen-activated protein kinase kinase kinase 5 (Homo sapiens) (UniProt Q99683); assay: Inhibition of ASK1 at 10 uM; conditions: values are per cent of control
[3] = target: Protein-tyrosine kinase 6 (Homo sapiens) (UniProt Q13882); assay: Inhibition of BRK at 10 uM; conditions: values are per cent of control
[4] = target: Calcium/calmodulin-dependent protein kinase type II subunit alpha (Homo sapiens) (UniProt Q9UQM7); assay: Inhibition of CAMK2A at 10 uM; conditions: values are per cent of control
[5] = target: Calcium/calmodulin-dependent protein kinase type II subunit delta (Homo sapiens) (UniProt Q13557); assay: Inhibition of CAMK2D at 10 uM; conditions: values are per cent of control
[6] = target: Calcium/calmodulin-dependent protein kinase kinase 1 (Homo sapiens) (UniProt Q8N5S9); assay: Inhibition of CAMKK1 at 10 uM; conditions: values are per cent of control
[7] = target: Dual specificity protein kinase CLK1 (Homo sapiens) (UniProt P49759); assay: Inhibition of CLK1 at 10 uM; conditions: values are per cent of control
[8] = target: Casein kinase II subunit alpha (Homo sapiens) (UniProt P68400); assay: Inhibition of CSNK2A1 at 10 uM; conditions: values are per cent of control
[9] = tested on: Receptor-type tyrosine-protein kinase FLT3 (Homo sapiens), P36888 [D835H]; assay: Inhibition of FLT3 D835H mutant at 10 uM; conditions: values are per cent of control
[10] = target: LIM domain kinase 1 (Homo sapiens) (UniProt P53667); assay: Inhibition of LIMK1 at 10 uM; conditions: values are per cent of control
[11] = target: Serine/threonine-protein kinase STK11 (Homo sapiens) (UniProt Q15831); assay: Inhibition of LKB1 at 10 uM; conditions: values are per cent of control
[12] = target: Serine/threonine-protein kinase MAK (Homo sapiens) (UniProt P20794); assay: Inhibition of MAK at 10 uM; conditions: values are per cent of control
[13] = target: Dual specificity mitogen-activated protein kinase kinase 1 (Homo sapiens) (UniProt Q02750); assay: Inhibition of MEK1 at 10 uM; conditions: values are per cent of control
[14] = target: Misshapen-like kinase 1 (Homo sapiens) (UniProt Q8N4C8); assay: Inhibition of MINK at 10 uM
[15] = target: MAP kinase-interacting serine/threonine-protein kinase 1 (Homo sapiens) (UniProt Q9BUB5); assay: Inhibition of MKNK1 at 10 uM
[16] = target: Mitogen-activated protein kinase kinase kinase 11 (Homo sapiens) (UniProt Q16584); assay: Inhibition of MLK3 at 10 uM
[17] = target: Serine/threonine-protein kinase 3 (Homo sapiens) (UniProt Q13188); assay: Inhibition of MST2 at 10 uM
[18] = target: Myosin light chain kinase, smooth muscle (Homo sapiens) (UniProt Q15746); assay: Inhibition of MYLK at 10 uM
[19] = target: Serine/threonine-protein kinase 38-like (Homo sapiens) (UniProt Q9Y2H1); assay: Inhibition of NDR2 at 10 uM
[20] = target: Serine/threonine-protein kinase Nek9 (Homo sapiens) (UniProt Q8TD19); assay: Inhibition of NEK9 at 10 uM
[21] = target: Serine/threonine-protein kinase PAK 4 (Homo sapiens) (UniProt O96013); assay: Inhibition of PAK4 at 10 uM
[22] = target: TGF-beta receptor type-1 (Homo sapiens) (UniProt P36897); assay: Inhibition of TGFBR1 at 10 uM
[23] = target: Tyrosine-protein kinase receptor Tie-1 (Homo sapiens) (UniProt P35590); assay: Inhibition of TIE1 at 10 uM
[24] = target: Serine/threonine-protein kinase tousled-like 2 (Homo sapiens) (UniProt Q86UE8); assay: Inhibition of TLK2 at 10 uM; conditions: values are per cent of control
[25] = target: Cyclin-dependent kinase 18 (Homo sapiens) (UniProt Q07002); assay: Inhibition of PCTK3 at 10 uM; conditions: values are per cent of control
[26] = target: Cyclin-dependent kinase 15 (Homo sapiens) (UniProt Q96Q40); assay: Inhibition of PFTAIRE2 at 10 uM; conditions: values are per cent of control
[27] = tested on: Phosphatidylinositol 4,5-bisphosphate 3-kinase catalytic subunit alpha isoform (Homo sapiens), P42336 [E545A]; assay: Inhibition of PIK3CA E545A mutant at 10 uM
[28] = tested on: Phosphatidylinositol 4,5-bisphosphate 3-kinase catalytic subunit alpha isoform (Homo sapiens), P42336 [E545K]; assay: Inhibition of PIK3CA E545K mutant at 10 uM
[29] = target: Phosphatidylinositol 4-phosphate 5-kinase type-1 gamma (Homo sapiens) (UniProt O60331); assay: Inhibition of PIP5K1C at 10 uM
[30] = target: Serine/threonine-protein kinase N2 (Homo sapiens) (UniProt Q16513); assay: Inhibition of PKN2 at 10 uM
[31] = target: Serine/threonine-protein kinase PknB (Mycobacterium tuberculosis) (UniProt P9WI81); assay: Inhibition of Mycobacterium tuberculosis PKNB at 10 uM
[32] = target: Protein kinase C theta type (Homo sapiens) (UniProt Q04759); assay: Inhibition of PRKCQ at 10 uM
[33] = target: Interferon-induced, double-stranded RNA-activated protein kinase (Homo sapiens) (UniProt P19525); assay: Inhibition of PRKR at 10 uM
[34] = target: Receptor-interacting serine/threonine-protein kinase 1 (Homo sapiens) (UniProt Q13546); assay: Inhibition of RIPK1 at 10 uM; conditions: values are per cent of control
[35] = target: Ribosomal protein S6 kinase alpha-4 (Homo sapiens) (UniProt O75676); assay: Inhibition of RPS6KA4 C-terminal domain2 at 10 uM
[36] = target: Ribosomal protein S6 kinase alpha-5 (Homo sapiens) (UniProt O75582); assay: Inhibition of RPS6KA5 C-terminal domain2 at 10 uM
[37] = target: Serine/threonine-protein kinase SBK1 (Homo sapiens) (UniProt Q52WX2); assay: Inhibition of SBK1 at 10 uM
[38] = target: Cyclin-dependent kinase 2 (Homo sapiens) (UniProt P24941); assay: Inhibition of CDK2 at 10 uM; values are per cent of control
[39] = target: Cyclin-dependent kinase 9 (Homo sapiens) (UniProt P50750); assay: Inhibition of CDK9 at 10 uM; values are per cent of control
[40] = target: Mitogen-activated protein kinase 9 (Homo sapiens) (UniProt P45984); assay: Inhibition of JNK2 at 10 uM; values are per cent of control
[41] = target: Platelet-derived growth factor receptor beta (Homo sapiens) (UniProt P09619); assay: Inhibition of PDGFRB at 10 uM; values are per cent of control
[42] = target: Mitogen-activated protein kinase 14 (Homo sapiens) (UniProt Q16539); assay: Inhibition of p38alpha at 10 uM; values are per cent of control
[43] = tested on: Epidermal growth factor receptor (Homo sapiens), P00533 [L858R]; assay: Inhibition of EGFR L858R mutant at 10 uM; values are per cent of control

Chain of Cyclin-dependent kinase 9 (Homo sapiens) (P50750 whole entry): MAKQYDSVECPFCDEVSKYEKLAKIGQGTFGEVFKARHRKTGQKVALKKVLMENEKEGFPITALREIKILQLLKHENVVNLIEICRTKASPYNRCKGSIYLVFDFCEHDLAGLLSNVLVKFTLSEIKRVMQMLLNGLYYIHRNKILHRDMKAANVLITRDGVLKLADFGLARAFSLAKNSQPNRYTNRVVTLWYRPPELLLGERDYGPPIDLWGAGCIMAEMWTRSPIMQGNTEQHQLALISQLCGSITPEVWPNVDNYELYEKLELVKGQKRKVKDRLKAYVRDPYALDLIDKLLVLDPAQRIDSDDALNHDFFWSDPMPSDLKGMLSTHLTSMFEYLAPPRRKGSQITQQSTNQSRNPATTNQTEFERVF
Chain of Activin receptor type-1B (Homo sapiens) (P36896 whole entry): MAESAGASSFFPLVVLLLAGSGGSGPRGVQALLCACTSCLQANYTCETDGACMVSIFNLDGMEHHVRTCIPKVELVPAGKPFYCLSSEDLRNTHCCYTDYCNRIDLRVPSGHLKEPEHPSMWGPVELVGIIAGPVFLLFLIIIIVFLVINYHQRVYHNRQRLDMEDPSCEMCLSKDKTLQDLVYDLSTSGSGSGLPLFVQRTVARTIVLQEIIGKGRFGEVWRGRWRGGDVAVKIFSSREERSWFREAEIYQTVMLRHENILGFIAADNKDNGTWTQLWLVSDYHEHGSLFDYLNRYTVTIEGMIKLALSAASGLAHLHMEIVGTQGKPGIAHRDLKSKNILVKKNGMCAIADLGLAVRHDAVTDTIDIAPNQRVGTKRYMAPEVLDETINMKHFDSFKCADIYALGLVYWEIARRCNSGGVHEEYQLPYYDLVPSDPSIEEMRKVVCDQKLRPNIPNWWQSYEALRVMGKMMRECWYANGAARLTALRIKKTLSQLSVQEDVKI
Chain of Phosphatidylinositol 4,5-bisphosphate 3-kinase catalytic subunit alpha isoform (Homo sapiens), P42336 [E545A] (P42336 whole entry E545A, canonical isoform): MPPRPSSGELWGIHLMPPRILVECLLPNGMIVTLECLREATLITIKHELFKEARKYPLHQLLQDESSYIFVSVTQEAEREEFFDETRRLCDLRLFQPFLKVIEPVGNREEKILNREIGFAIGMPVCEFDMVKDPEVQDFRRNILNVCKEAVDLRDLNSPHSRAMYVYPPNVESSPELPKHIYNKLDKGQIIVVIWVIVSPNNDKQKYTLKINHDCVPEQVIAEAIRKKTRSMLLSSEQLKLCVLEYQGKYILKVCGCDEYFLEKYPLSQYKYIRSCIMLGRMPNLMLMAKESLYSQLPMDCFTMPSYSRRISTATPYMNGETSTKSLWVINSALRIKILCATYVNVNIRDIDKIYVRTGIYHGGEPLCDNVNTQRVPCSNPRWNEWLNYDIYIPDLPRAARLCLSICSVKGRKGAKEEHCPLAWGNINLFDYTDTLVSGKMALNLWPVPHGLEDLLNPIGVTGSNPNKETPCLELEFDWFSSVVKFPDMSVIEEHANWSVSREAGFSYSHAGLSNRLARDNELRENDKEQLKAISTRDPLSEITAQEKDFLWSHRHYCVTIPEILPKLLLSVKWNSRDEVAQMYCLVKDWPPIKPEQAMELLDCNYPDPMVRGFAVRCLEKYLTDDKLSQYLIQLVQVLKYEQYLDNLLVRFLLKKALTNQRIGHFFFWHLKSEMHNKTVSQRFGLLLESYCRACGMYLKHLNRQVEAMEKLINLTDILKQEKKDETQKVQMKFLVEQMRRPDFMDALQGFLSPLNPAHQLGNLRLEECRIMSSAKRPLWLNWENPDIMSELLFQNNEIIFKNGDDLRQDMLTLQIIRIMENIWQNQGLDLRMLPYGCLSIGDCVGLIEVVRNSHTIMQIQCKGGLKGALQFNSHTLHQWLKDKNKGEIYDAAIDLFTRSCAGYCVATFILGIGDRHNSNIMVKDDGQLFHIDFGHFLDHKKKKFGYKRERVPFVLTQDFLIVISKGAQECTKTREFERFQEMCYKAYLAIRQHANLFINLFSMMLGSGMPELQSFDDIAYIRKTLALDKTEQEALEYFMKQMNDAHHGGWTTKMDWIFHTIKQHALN
Chain of Serine/threonine-protein kinase tousled-like 2 (Homo sapiens) (Q86UE8 whole entry, looked up): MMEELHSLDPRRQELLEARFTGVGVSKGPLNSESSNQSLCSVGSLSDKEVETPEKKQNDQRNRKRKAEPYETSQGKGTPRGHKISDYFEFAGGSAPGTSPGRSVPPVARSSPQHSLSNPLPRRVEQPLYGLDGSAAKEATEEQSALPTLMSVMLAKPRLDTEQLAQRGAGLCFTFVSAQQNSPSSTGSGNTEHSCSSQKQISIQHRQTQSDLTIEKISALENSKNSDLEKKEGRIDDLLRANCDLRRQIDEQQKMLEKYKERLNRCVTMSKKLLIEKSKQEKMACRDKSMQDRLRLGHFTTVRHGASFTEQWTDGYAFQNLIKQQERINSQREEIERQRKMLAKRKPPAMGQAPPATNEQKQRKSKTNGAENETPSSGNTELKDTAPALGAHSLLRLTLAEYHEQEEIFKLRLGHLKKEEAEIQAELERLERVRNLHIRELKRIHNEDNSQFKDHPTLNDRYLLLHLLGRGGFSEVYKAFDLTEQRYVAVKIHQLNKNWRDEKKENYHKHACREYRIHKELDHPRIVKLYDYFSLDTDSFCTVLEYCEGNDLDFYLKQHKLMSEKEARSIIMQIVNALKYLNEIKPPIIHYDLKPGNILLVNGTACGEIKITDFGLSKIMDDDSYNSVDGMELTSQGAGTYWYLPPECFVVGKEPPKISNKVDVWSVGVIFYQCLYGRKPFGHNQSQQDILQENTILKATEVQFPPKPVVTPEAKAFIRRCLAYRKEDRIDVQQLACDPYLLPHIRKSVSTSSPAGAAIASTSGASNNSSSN
Chain of Dual specificity protein kinase CLK1 (Homo sapiens) (P49759 whole entry, looked up): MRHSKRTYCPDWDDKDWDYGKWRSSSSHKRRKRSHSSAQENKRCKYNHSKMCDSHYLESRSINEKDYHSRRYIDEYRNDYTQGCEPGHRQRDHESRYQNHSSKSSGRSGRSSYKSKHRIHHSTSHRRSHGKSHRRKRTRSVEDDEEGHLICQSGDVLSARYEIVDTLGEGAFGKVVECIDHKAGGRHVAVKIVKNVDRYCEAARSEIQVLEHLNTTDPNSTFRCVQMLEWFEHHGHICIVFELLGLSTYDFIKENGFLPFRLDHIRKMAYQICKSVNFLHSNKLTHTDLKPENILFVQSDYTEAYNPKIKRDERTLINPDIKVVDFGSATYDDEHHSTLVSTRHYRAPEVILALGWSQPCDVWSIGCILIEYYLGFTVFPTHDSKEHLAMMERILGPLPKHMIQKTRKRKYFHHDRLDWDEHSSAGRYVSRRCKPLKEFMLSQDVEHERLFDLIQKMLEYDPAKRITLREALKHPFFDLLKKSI
Chain of Serine/threonine-protein kinase N2 (Homo sapiens) (Q16513 whole entry, looked up): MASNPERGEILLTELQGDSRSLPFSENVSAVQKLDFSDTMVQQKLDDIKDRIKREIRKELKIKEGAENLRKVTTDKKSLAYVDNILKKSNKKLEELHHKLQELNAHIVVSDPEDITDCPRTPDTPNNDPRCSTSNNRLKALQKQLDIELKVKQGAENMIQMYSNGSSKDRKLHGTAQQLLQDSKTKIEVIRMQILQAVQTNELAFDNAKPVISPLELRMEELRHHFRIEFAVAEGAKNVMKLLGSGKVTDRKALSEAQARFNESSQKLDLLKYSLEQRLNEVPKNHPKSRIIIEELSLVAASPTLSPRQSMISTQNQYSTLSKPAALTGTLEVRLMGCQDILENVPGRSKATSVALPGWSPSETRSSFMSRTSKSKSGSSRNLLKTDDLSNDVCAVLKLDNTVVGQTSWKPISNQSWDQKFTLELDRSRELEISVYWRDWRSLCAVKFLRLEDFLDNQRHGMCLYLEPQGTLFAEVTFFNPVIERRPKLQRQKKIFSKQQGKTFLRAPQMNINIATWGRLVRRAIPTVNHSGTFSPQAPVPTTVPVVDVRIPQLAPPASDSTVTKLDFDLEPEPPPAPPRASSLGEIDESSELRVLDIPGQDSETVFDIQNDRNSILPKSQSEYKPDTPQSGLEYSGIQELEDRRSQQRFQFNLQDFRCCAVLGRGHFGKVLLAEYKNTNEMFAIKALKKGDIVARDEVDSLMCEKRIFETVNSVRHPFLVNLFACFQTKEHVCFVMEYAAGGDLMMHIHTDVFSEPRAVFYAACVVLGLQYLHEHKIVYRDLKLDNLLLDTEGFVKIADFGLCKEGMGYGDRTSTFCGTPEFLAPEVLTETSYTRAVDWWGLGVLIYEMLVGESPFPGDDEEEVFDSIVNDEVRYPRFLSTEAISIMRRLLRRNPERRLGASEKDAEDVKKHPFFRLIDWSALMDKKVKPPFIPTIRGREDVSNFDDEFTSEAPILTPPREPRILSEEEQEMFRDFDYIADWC
Chain of Calcium/calmodulin-dependent protein kinase kinase 1 (Homo sapiens) (Q8N5S9 whole entry, looked up): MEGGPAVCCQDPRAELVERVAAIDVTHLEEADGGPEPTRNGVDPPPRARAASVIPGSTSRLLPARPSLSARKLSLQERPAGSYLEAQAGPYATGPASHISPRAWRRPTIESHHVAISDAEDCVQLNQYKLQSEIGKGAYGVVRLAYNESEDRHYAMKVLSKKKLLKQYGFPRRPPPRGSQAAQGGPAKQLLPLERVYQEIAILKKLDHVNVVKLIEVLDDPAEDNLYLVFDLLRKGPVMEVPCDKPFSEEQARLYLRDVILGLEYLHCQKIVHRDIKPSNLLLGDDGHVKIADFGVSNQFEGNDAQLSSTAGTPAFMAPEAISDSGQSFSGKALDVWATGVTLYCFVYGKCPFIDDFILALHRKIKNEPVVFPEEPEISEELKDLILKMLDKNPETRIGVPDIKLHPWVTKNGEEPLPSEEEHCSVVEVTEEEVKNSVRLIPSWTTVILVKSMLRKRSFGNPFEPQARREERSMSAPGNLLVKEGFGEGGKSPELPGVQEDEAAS
Chain of Mitogen-activated protein kinase 14 (Homo sapiens) (Q16539 whole entry): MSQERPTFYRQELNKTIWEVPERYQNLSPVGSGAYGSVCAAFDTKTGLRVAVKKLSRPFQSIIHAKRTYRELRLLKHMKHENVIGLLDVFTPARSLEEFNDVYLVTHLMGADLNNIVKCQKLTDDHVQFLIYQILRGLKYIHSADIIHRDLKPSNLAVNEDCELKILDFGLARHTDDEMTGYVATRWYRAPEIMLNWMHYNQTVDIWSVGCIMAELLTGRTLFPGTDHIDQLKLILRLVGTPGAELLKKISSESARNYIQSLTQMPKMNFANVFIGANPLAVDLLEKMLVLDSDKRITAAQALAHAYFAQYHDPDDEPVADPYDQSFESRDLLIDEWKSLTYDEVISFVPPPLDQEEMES

CCN1CCN(Cc2ccc(NC(=O)c3ccc(C)c(C#Cc4cccnc4)c3)cc2C(F)(F)F)CC1
EC50 (BaF3): 1590 nM | residual binding, % of control [1]: 85% | residual binding, % of control [2]: 100% | residual binding, % of control [3]: 2.8% | residual binding, % of control [4]: 100% | residual binding, % of control [5]: 100% | residual binding, % of control [6]: 53% | residual binding, % of control [7]: 3.9% | residual binding, % of control [8]: 100% | residual binding, % of control [9]: 0.15% | residual binding, % of control [10]: 3% | residual binding, % of control [11]: 96% | residual binding, % of control [12]: 9% | residual binding, % of control [13]: 100% | inhibition [14]: 2.5% | inhibition [15]: 0.25% | inhibition [16]: 17% | inhibition [17]: 53% | inhibition [18]: 57% | inhibition [19]: 8.7% | inhibition [20]: 41% | inhibition [21]: 100% | inhibition [22]: 100% | inhibition [23]: 1.6% | residual binding, % of control [24]: 100% | residual binding, % of control [25]: 6.2% | residual binding, % of control [26]: 6.4% | inhibition [27]: 93% | inhibition [28]: 85% | inhibition [29]: 90% | inhibition [30]: 36% | inhibition [31]: 87% | inhibition [32]: 55% | inhibition [33]: 66% | residual binding, % of control [34]: 0.05% | inhibition [35]: 99% | inhibition [36]: 100% | inhibition [37]: 88% | level, % of control [38]: 10% | level, % of control [39]: 52% | level, % of control [40]: 0% | level, % of control [41]: 0% | level, % of control [42]: 0% | level, % of control [43]: 4%

CCN1CCN(Cc2ccc(NC(=O)c3ccc(C)c(C#Cc4cnc5[nH]ccc5c4)c3)cc2C(F)(F)F)CC1
EC50 (BaF3): 1000 nM | residual binding, % of control [1]: 63% | residual binding, % of control [2]: 24% | residual binding, % of control [3]: 2.5% | residual binding, % of control [4]: 100% | residual binding, % of control [5]: 100% | residual binding, % of control [6]: 69% | residual binding, % of control [7]: 6.8% | residual binding, % of control [8]: 100% | residual binding, % of control [9]: 0.35% | residual binding, % of control [10]: 1.2% | residual binding, % of control [11]: 60% | residual binding, % of control [12]: 61% | residual binding, % of control [13]: 82% | inhibition [14]: 5.4% | inhibition [15]: 1.2% | inhibition [16]: 3% | inhibition [17]: 26% | inhibition [18]: 56% | inhibition [19]: 11% | inhibition [20]: 12% | inhibition [21]: 87% | inhibition [22]: 100% | inhibition [23]: 1.1% | residual binding, % of control [24]: 100% | residual binding, % of control [25]: 12% | residual binding, % of control [26]: 2% | inhibition [27]: 93% | inhibition [28]: 98% | inhibition [29]: 100% | inhibition [30]: 2.2% | inhibition [31]: 98% | inhibition [32]: 36% | inhibition [33]: 54% | residual binding, % of control [34]: 0% | inhibition [35]: 87% | inhibition [36]: 97% | inhibition [37]: 87% | level, % of control [38]: 13% | level, % of control [39]: 31% | level, % of control [40]: 0% | level, % of control [41]: 0% | level, % of control [42]: 0% | level, % of control [43]: 0.25%
